Results published in article PMC8765437, “GSK3640254 Is a Novel HIV-1 Maturation Inhibitor with an Optimized Virology Profile” (Antimicrobial Agents and Chemotherapy, 2022).
Like-named read-outs stand apart in the source and are kept apart here.

Experiments:
HIV-1 M tropic strains = test: M-tropic laboratory strains, extracellular p24 antigen in PM1 cells; format: cell-based
Protocol: Virus yields were measured in dose-response experiments by either luciferase activity in human T-cells (CEM-NKR-CCR5-Luc), extracellular reverse transcriptase activity in MT-2 cells (T-tropic viruses), or extracellular p24 antigen in PM1 cells (M-tropic viruses).
Multiple-cycle assays using recombinant viruses or clinical isolates were used to assess MI antiviral activity as described previously ([10]). pNLRepRlucP373S (the P373S change is in the Gag gene and converts an outlier polymorphism in the NL4-3 gene to the prevalent amino acid in the population) plasmids containing SDMs in Gag or gag/pr regions from clinical isolates were transfected into HEK 293T cells, and the supernatant containing recombinant virus was harvested after 4 to 5 days. Virus was used to infect MT-2 cells in the presence of a 3-fold serially diluted compound at a final dimethyl sulfoxide (DMSO) concentration of 1%. The inocula of the reporter viruses were determined based on the luciferase activity detected on day 4 postinfection. The MOI (ratio of infectious virions to target cells) of reporter-free laboratory strains and clinical isolates was 0.005, as derived from a tissue culture infectious dose study. Clinical isolates or reporter-free viruses were examined in the reporter CEM-NKR-CCR5-Luc cells or PBMCs at MOIs ranging from 0.005 to 0.01. Each infection started with a drug-free preincubation of the cell-virus mixtures, performed at 37°C and 5% CO2 for either 1 h at 2 times the final cell density (reporter viruses) or 1 h (reporter-free laboratory strains) or 3 h (clinical isolates) using cell pellets in 0.5 mL of medium. […] Virus growth was determined on days 4 to 5 postinfection for reporter variants or days 5 to 11 for the other viruses. The reporter viruses were detected by a luciferase assay according to manufacturer protocols (Brite-Glo luciferase kit [Promega] for CEM-NKR-CCR5-Luc cells and Dual-Luciferase Reporter 1000 assay system [Promega] for the other cells), and luminescence was detected on a Wallac Trilux. The growth of clinical isolates in PBMCs was quantitated by reverse transcriptase activity in a 96-well scintillation proximity assay (SPA). […] Luminescence was detected on a Wallac Trilux programmed for tritium counting with SPA beads in opaque plates. The growth of the reporter-free laboratory M-tropic strains and clinical isolates was monitored by a p24 enzyme-linked immunosorbent assay (ELISA; PerkinElmer Life Sciences, Waltham, MA) performed on culture supernatants.
Maximal percent inhibition values were calculated as MPI = 100 – (mean signals at the 2 highest concentrations of compound/mean signal of 2 no-drug control wells) × 100.

[1] = system: HIV-1 viruses containing Gag region SDMs; test: Single-cycle infection assay with Gag SDM viruses; format: cell-based
Protocol: Single-cycle infection assays were performed as described previously ([10]). Half-maximal effective concentration values were calculated as the compound concentration that inhibits 50% of the maximal signal (no-drug control), correcting for background. Background was determined as the residual signal observed upon inhibition at the highest concentration of a control protease inhibitor, nelfinavir (3 μM). Half-maximal fold change effective concentration versus WT values were calculated by dividing the EC50 of the recombinant virus by the EC50 of WT RepRlucNL4-3 virus run in parallel.

[2] = Human immunodeficiency virus 1, PM1, Bal
[3] = Human immunodeficiency virus 1, PM1, JRFL
[4] = Human immunodeficiency virus 1, read-out: Mean ± SD EC50, A364V
[5] = Human immunodeficiency virus 1, read-out: Mean ± SD EC50, A366V
[6] = Human immunodeficiency virus 1, read-out: Mean ± SD EC50, A366V/V370M
[7] = Human immunodeficiency virus 1, read-out: Mean ± SD EC50, H358Y/ΔT371
[8] = Human immunodeficiency virus 1, read-out: Mean ± SD EC50, I333V/V362I
[9] = Human immunodeficiency virus 1, read-out: Mean ± SD EC50, I333V/V370
[10] = Human immunodeficiency virus 1, read-out: Mean ± SD EC50, I333V/V370A
[11] = Human immunodeficiency virus 1, read-out: Mean ± SD EC50, M367V
[12] = Human immunodeficiency virus 1, read-out: Mean ± SD EC50, R361K/V362I/L363M
[13] = Human immunodeficiency virus 1, read-out: Mean ± SD EC50, T33N/V370A
[14] = Human immunodeficiency virus 1, read-out: Mean ± SD EC50, T332N/V370A
[15] = Human immunodeficiency virus 1, read-out: Mean ± SD EC50, T332S/V362I/prR41G
[16] = Human immunodeficiency virus 1, read-out: Mean ± SD EC50, V362I
[17] = Human immunodeficiency virus 1, read-out: Mean ± SD EC50, V362I/A366V
[18] = Human immunodeficiency virus 1, read-out: Mean ± SD EC50, V362I/A366V/V370M
[19] = Human immunodeficiency virus 1, read-out: Mean ± SD EC50, V362I/H219Q
[20] = Human immunodeficiency virus 1, read-out: Mean ± SD EC50, V362I/H219Q/T332S
[21] = Human immunodeficiency virus 1, read-out: Mean ± SD EC50, V362I/V370A
[22] = Human immunodeficiency virus 1, read-out: Mean ± SD EC50, V362I/V370M
[23] = Human immunodeficiency virus 1, read-out: Mean ± SD EC50, V370A
[24] = Human immunodeficiency virus 1, read-out: Mean ± SD EC50, V370M
[25] = Human immunodeficiency virus 1, read-out: Mean ± SD EC50, Wild type
[26] = Human immunodeficiency virus 1, read-out: Mean ± SD EC50, ΔV370

Structure (SMILES): C=C(C)[C@@H]1CC[C@]2(NCCN3CCS(=O)(=O)CC3)CC[C@]3(C)[C@H](CC[C@@H]4[C@@]5(C)CC=C(C6=CC[C@@](CF)(C(=O)O)CC6)C(C)(C)[C@@H]5CC[C@]43C)[C@@H]12 [GSK’254]
- EC50 (HIV-1 M tropic strains; [2]): 1.1 nM
- EC50 (HIV-1 M tropic strains; [3]): 1.2 nM
- MPI ([1]; A364V): 45%
- MPI ([1]; A366V): −7.6%
- MPI ([1]; A366V/V370M): 26%
- MPI ([1]; H358Y/ΔT371): 67%
- EC50 ([1]; Human immunodeficiency virus 1, V362I/V370A): 4 nM
- EC50 [1, 4]: > 3000 nM
- EC50 [1, 5]: > 3000 nM
- EC50 [1, 6]: > 3000 nM
- EC50 [1, 7]: 35 ± 2 nM
- EC50 [1, 8]: 39 ± 5 nM
- EC50 [1, 9]: 11 ± 1 nM
- EC50 [1, 10]: 11 ± 1 nM
- EC50 [1, 11]: 15 ± 10 nM
- EC50 [1, 12]: 14 ± 2 nM
- EC50 [1, 13]: 3 nM
- EC50 [1, 14]: 4 ± 1 nM
- EC50 [1, 15]: 13 ± 9 nM
- EC50 [1, 16]: 3 ± 1 nM
- EC50 [1, 17]: > 3000 nM
- EC50 [1, 18]: > 3000 nM
- EC50 [1, 19]: 7 ± 2 nM
- EC50 [1, 20]: 8 ± 3 nM
- EC50 [1, 21]: 4 ± 1 nM
- EC50 [1, 22]: 4 ± 2 nM
- EC50 [1, 23]: 2 ± 1 nM
- EC50 [1, 24]: 2 ± 1 nM
- EC50 [1, 25]: 3 ± 2 nM
- EC50 [1, 26]: 8 nM
- MPI ([1]; I333V/V362I): 65%
- MPI ([1]; I333V/V370): 86%
- MPI ([1]; I333V/V370A): 86%
- MPI ([1]; M367V): 89%
- MPI ([1]; R361K/V362I/L363M): 89%
- MPI ([1]; T33N/V370A): 94%
- MPI ([1]; T332N/V370A): 94%
- MPI ([1]; T332S/V362I/prR41G): 88%
- MPI ([1]; V362I): 89%
- MPI ([1]; V362I/A366V): −96%
- MPI ([1]; V362I/A366V/V370M): 1%
- MPI ([1]; V362I/H219Q): 91%
- MPI ([1]; V362I/H219Q/T332S): 91%
- MPI ([1]; V362I/V370A): 91%
- MPI ([1]; V362I/V370M): 90%
- MPI ([1]; V370A): 97%
- MPI ([1]; V370M): 93%
- MPI ([1]; Wild type): 98%
- MPI ([1]; ΔV370): 96%

Structure (SMILES): C=C(C)[C@@H]1CC[C@]2(NCCN3CCS(=O)(=O)CC3)CC[C@]3(C)[C@H](CC[C@@H]4[C@@]5(C)CC=C(c6ccc(C(=O)O)cc6)C(C)(C)[C@@H]5CC[C@]43C)[C@@H]12 [GSK’795, reference compound]
- EC50 (HIV-1 M tropic strains; [2]): 3.7 nM
- EC50 (HIV-1 M tropic strains; [3]): 13 nM
- MPI ([1]; A364V): 8%
- MPI ([1]; A366V): 3%
- MPI ([1]; A366V/V370M): 3%
- MPI ([1]; H358Y/ΔT371): 18%
- EC50 [1, 4]: > 3000 nM
- EC50 [1, 5]: > 3000 nM
- EC50 [1, 6]: > 3000 nM
- EC50 [1, 7]: > 3000 nM
- EC50 [1, 8]: > 3000 nM
- EC50 [1, 9]: > 3000 nM
- EC50 [1, 10]: > 3000 nM
- EC50 [1, 11]: > 3000 nM
- EC50 [1, 12]: > 3000 nM
- EC50 [1, 13]: 30 nM
- EC50 [1, 14]: 30 nM
- EC50 [1, 15]: > 3000 nM
- EC50 [1, 16]: 14 ± 6 nM
- EC50 [1, 17]: > 3000 nM
- EC50 [1, 18]: > 3000 nM
- EC50 [1, 19]: 66 nM
- EC50 [1, 20]: 710 nM
- EC50 [1, 21]: > 3000 nM
- EC50 [1, 22]: > 3000 nM
- EC50 [1, 23]: 6 nM
- EC50 [1, 24]: 13 ± 11 nM
- EC50 [1, 25]: 5 ± 3 nM
- EC50 [1, 26]: 110 nM
- MPI ([1]; I333V/V362I): −30%
- MPI ([1]; I333V/V370): −36%
- MPI ([1]; I333V/V370A): 10%
- MPI ([1]; M367V): 36%
- MPI ([1]; R361K/V362I/L363M): 36%
- MPI ([1]; T33N/V370A): 70%
- MPI ([1]; T332N/V370A): 70%
- MPI ([1]; T332S/V362I/prR41G): −30%
- MPI ([1]; V362I): 68%
- MPI ([1]; V362I/A366V): −109%
- MPI ([1]; V362I/A366V/V370M): −62%
- MPI ([1]; V362I/H219Q): 60%
- MPI ([1]; V362I/H219Q/T332S): 52%
- MPI ([1]; V362I/V370A): 31%
- MPI ([1]; V362I/V370M): 51%
- MPI ([1]; V370A): 84%
- MPI ([1]; V370M): 78%
- MPI ([1]; Wild type): 94%
- MPI ([1]; ΔV370): 60%
